Experiments:
[1] = cited from earlier work
[2] = IMPAACT P1066: safety in HIV-1 infected pediatric patients; format: in vivo, human
Description: Raltegravir has been studied in 126 antiretroviral treatment-experienced HIV-1 infected pediatric patients 2 through 18 years of age, in combination with other antiretroviral agents in IMPAACT P1066. Of the 126 patients, 96 received only the final recommended dose through at least 24 weeks.

[3] = laboratory abnormality, pediatric patients

SMILES	solubility in acetonitrile ([1]; acetonitrile)	solubility in ethanol ([1]; ethanol)	solubility in isopropanol ([1]; isopropanol)	solubility in methanol ([1]; methanol)	solubility in water ([1]; water)	ALT increased, Grade 3 [2, 3] [%]	AST increased, Grade 3 [2, 3] [%]	AST increased, Grade 4 [2, 3] [%]	GGT increased, Grade 3 [2, 3] [%]	bilirubin increased, Grade 3 [2, 3] [%]	creatinine increased, Grade 3 [2, 3] [%]	glucose abnormal, Grade 3 [2, 3] [%]	glucose decreased, Grade 3 [2, 3] [%]	magnesium decreased, Grade 3 [2, 3] [%]	neutrophil count decreased, Grade 4 [2, 3] [%]	neutrophil count decreased, Grade 3 ([2]; laboratory abnormality, pediatric patients 2 through 18 years) [%]	Grade 3 or higher adverse reactions (psychomotor hyperactivity, abnormal behavior, insomnia) ([2]; pediatric patients)	frequency, type and severity of drug related adverse reactions ([2]; pediatric patients)	serious Grade 2 possibly drug related allergic rash ([2]; pediatric patients)
Cc1nnc(C(=O)NC(C)(C)c2nc(C(=O)NCc3ccc(F)cc3)c([O-])c(=O)n2C)o1.[K+] [Raltegravir potassium, N-[(4-Fluorophenyl)methyl]-1,6-dihydro-5-hydroxy-1-methyl-2-[1-methyl-1-[[(5-methyl-1,3,4-oxadiazol-2-yl)carbonyl]amino]ethyl]-6-oxo-4-pyrimidinecarboxamide monopotassium salt]	very slightly soluble	very slightly soluble	insoluble	slightly soluble	soluble														
Cc1nnc(C(=O)NC(C)(C)c2nc(C(=O)NCc3ccc(F)cc3)c(O)c(=O)n2C)o1 [Raltegravir]						1.1	1.1	1.1	1.1	1.1	1.1	1.1	1.1	1.1	1.1	7.4	one patient	comparable to those observed in adults	one

From patent publication US20140242178A1, “TASTE-MASKED FORMULATIONS OF RALTEGRAVIR” (priority 2011, published 2014)
